How the values were obtained:
BTK in Ramos cells = assay: Washout experiment with Ramos cells for BTK activity; format: cell-based, human; conditions: for BTK Inhibition Type: Ramos washout assay, 100 nM compound for 1 hour
Method: Ramos cells were serum starved for one hour in RPMI media+1% glutamine at 37° C. After starvation, Ramos cells were treated with 100 nM compound diluted in serum free RPMI media for 1 hour. After compound treatment, the media was removed and cells were washed with compound-free media. Subsequently, Ramos cells were washed every 2 hours and resuspended in fresh compound-free media. Cells were collected at specified timepoints, treated with 1 ug anti-human IgM (Southern Biotech cat #2022-01) for 10 minutes on ice to induce BCR signaling and then washed in PBS. Ramos cells were then lysed in Cell Extraction Buffer (Invitrogen FNN0011) supplemented with Roche complete protease inhibitor tablets (Roche 11697498001) and phosphatase inhibitors (Roche 04 906 837 001) and 18 ug total protein lysate was loaded in each lane. Inhibition of BTK kinase activity was assayed by measuring its substrate (PLCγ2) phosphorylation by western blot with phospho-specific antibodies from Cell Signaling Technologies cat#3871. FIG. 10 depicts the results of compound I-13 in the washout experiment at 0 hour, 4 hour, 6 hour, and 8 hour time points.

BTK = BTK (Homo sapiens, UniProt Q06187); assay: Mass spectrometry for BTK (intact protein); format: binding; conditions: 10× excess, 1 hr, MALDI
Sequence of BTK (Q06187 whole entry): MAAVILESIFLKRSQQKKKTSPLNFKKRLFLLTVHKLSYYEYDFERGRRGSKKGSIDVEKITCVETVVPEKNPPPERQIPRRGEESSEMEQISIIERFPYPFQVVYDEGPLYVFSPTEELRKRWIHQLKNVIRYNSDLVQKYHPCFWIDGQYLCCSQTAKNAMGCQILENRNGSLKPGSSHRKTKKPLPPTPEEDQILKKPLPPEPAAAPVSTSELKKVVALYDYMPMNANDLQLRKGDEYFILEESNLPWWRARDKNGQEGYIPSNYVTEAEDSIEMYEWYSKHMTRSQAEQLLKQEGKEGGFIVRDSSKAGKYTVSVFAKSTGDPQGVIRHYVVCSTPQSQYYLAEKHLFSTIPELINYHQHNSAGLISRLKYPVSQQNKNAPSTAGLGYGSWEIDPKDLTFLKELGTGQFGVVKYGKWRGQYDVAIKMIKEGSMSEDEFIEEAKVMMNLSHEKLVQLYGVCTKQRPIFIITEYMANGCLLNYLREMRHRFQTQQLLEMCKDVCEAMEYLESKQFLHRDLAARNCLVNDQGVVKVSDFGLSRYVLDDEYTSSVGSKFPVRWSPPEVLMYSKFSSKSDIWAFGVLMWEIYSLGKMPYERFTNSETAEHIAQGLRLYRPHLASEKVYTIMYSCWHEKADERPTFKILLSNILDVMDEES
Method: Intact BTK was incubated for 1 hr at a 10× fold excess of compound I-63 or I-66 to protein. Aliquots (2 ul) of the samples were diluted with 10 ul of 0.1% TFA prior to micro C4 ZipTipping directly onto the MALDI target using Sinapinic acid as the desorption matrix (10 mg/ml in 0.1% TFA:Acetonitrile 20:80). The top panels of FIGS. 12 and 13 show the mass spec trace of the intact BTK protein (m/z 81,169 Da). The bottom panels show the mass spec trace when BTK was incubated with compound I-63 (mw 424.5) or compound I-66 (mw 425.5) in FIGS. 12 and 13, respectively.

ErbB1 = ErbB1 (Homo sapiens, UniProt P00533); assay: Z'-LYTE biochemical assay, ErbB1 kinase inhibition
Sequence of ErbB1 (P00533 25-1210): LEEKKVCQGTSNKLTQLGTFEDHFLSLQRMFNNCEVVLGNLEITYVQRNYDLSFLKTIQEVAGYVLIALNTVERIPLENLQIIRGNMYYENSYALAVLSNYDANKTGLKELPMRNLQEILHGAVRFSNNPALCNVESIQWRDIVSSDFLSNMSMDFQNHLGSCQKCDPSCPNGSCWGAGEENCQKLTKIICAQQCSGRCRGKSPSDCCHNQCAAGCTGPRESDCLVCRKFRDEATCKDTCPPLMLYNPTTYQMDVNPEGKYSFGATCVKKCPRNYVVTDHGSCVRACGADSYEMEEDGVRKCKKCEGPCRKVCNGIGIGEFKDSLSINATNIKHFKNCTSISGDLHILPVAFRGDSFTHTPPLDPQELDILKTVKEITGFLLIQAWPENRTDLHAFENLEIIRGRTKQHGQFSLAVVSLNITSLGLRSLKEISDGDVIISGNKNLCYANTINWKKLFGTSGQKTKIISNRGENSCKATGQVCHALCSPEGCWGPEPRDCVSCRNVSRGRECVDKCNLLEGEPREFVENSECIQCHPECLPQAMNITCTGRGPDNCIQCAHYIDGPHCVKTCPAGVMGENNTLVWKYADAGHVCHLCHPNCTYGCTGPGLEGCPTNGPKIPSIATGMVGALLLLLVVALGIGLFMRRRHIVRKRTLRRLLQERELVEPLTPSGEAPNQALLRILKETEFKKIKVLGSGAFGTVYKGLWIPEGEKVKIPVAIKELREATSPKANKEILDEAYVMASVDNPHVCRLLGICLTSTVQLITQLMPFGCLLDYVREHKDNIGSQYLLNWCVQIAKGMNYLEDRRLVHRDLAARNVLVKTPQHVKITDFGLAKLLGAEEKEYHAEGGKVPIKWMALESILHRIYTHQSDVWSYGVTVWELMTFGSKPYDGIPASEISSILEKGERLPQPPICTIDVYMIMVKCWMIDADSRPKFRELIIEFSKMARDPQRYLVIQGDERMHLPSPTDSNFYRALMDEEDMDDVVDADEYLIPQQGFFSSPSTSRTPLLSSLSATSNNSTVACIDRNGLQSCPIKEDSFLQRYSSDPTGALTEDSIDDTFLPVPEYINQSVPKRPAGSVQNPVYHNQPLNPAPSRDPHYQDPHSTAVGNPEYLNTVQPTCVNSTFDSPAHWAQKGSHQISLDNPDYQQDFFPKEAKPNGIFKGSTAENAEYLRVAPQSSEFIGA
Method in brief: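 Fluorescence-based coupled-enzyme Z′-LYTE format: kinase phosphorylation of a peptide substrate is read by differential protease cleavage of phosphorylated versus non-phosphorylated peptide.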

ErbB2 = ErbB2 (Homo sapiens, UniProt P04626); assay: Z'-LYTE biochemical assay, ErbB2 kinase inhibition
Sequence of ErbB2 (P04626 23-1255): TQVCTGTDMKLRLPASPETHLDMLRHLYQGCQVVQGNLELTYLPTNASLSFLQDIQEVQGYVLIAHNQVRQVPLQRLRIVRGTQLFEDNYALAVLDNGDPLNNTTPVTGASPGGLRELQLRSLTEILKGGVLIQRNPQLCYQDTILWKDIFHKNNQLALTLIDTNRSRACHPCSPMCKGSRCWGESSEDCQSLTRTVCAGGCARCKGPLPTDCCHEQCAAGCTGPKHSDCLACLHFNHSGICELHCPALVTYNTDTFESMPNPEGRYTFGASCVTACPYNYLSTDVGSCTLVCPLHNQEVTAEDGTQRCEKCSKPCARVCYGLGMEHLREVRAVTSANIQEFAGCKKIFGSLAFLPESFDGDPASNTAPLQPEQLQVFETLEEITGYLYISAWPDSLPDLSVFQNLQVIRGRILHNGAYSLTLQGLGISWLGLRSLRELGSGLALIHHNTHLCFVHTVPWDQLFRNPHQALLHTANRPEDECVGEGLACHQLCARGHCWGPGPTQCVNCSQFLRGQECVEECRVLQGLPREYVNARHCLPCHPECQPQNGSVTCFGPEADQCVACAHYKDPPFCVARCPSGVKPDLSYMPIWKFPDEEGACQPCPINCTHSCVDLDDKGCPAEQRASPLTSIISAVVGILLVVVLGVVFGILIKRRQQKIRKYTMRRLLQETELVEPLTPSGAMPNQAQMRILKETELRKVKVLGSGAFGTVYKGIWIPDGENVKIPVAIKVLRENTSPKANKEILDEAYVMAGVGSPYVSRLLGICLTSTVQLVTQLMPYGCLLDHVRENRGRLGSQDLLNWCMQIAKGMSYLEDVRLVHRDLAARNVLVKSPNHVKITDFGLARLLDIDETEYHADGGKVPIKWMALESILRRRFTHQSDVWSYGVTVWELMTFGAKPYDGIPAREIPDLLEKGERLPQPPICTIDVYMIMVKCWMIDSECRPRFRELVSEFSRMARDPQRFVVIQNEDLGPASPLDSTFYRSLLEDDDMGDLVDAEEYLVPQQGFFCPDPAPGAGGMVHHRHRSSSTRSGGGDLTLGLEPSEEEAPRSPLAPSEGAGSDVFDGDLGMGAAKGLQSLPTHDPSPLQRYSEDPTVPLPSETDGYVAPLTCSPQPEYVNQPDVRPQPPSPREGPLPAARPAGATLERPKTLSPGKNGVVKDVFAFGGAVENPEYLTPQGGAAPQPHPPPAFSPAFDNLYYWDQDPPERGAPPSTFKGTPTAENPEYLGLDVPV
Method: Compounds of the present invention were assayed as inhibitors of one or more of ErbB1, ErbB2, and/or ErbB4 in a manner substantially similar to the method described by Invitrogen Corp (Invitrogen Corporation, 1600 Faraday Avenue, Carlsbad, Calif., CA; http://www.invitrogen.com/downloads/Z-LYTE_Brochure—1205.pdf) using the Z′-LYTE™ biochemical assay procedure or similar biochemical assay. The Z′-LYTE™ biochemical assay employs a fluorescence-based, coupled-enzyme format and is based on the differential sensitivity of phosphorylated and non-phosphorylated peptides to proteolytic cleavage.

ErbB4 kinase domain = molecular target: T1, ErbB4 kinase domain (Homo sapiens, UniProt Q15303); assay: Mass spectrometry for ErbB4 (covalent modification); format: binding; conditions: 10-fold excess of compound, 90 minutes, MALDI
T1 construct: ErbB4 kinase domain (Upstate) was incubated with compound; purchased Upstate
T1 sequence (Q15303 718-985 limits assumed): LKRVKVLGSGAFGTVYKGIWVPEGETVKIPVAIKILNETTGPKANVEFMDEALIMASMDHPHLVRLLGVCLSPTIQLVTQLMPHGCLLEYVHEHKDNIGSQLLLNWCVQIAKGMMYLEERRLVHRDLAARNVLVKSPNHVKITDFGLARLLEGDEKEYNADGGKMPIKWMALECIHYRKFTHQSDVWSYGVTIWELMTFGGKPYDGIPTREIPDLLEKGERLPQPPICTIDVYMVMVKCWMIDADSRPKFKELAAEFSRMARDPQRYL
Method: ErbB4 kinase domain (Upstate) was incubated with compound for 90 minutes at 10-fold excess of compound I-1 to protein. 1 ul aliquots of the samples (total volume of 4.24 ul) were diluted with 10 ul of 0.1% TFA prior to micro C4 ZipTipping directly onto the MALDI target using Sinapinic acid as the desorption matrix (10 mg/ml in 0.1% TFA:Acetonitrile 50:50). For intact protein mass measurement the instrument was set in Linear mode using a pulsed extraction setting of 16,952 for the myoglobin standard used to calibrate the instrument
Intact ErbB4 protein occurs at MH+ of 35850 with corresponding sinapinic (matrix) adducts occurring about 200 Da higher. A stochiometric incorporation of the compound I-1 (Mw of 410 Da) produced a new mass peak which is approximately 410 Da higher (MH+ of 36260).

TEC kinase = molecular target: T2, TEC kinase (Homo sapiens, UniProt P42680); assay: Mass spectrometry for TEC kinase (tryptic digest); format: binding, homo sapien; conditions: 10× excess, 3 hrs, MALDI
T2 construct: purchased Invitrogen
T2 sequence (P42680 1-631): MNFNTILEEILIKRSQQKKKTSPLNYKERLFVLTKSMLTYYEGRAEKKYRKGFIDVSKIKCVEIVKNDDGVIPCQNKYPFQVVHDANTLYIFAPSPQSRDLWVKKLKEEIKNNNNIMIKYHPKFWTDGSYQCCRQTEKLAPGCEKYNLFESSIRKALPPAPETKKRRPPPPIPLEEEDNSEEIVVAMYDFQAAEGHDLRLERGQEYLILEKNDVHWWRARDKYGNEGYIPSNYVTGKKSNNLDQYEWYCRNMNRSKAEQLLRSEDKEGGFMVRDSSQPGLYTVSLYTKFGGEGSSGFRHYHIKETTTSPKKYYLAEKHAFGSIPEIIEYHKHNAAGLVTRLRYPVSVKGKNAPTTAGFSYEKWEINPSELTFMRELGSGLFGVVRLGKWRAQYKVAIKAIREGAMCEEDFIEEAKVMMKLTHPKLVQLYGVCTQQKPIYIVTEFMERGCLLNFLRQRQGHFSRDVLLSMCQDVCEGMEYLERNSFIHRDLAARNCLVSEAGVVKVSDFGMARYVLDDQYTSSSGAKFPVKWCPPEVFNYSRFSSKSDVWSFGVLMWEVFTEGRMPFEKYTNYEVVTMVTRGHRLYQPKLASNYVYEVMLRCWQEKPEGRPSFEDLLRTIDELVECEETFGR
Method: TEC kinase (45 pmols; Invitrogen) was incubated with (I-13) (450 pmols) for 3 hrs at 10× access prior to tryptic digestion. Iodoacetamide was used as the alkylating agent after compound incubation. […] For tryptic digests a 5 ul aliquot (7.5 pmols) was diluted with 15 ul of 0.1% TFA prior to micro C18 Zip Tipping directly onto the MALDI target using alpha cyano-4-hydroxy cinnamic acid as the matrix (5 mg/ml in 0.1% TFA:Acetonitrile 50:50).
As depicted in FIG. 11, the expected peptide (GCLLNFLR) to be modified was immediately evident at MH+ of 1358.65. This is the mass to be expected when compound I-13, with an adduct mass of 423.17, is added to the peptide mass of 935.51. The peptide was also quite evident in the control sample as modified by Iodacetamide at MH+ of 992.56. […] There was no evidence of any other modified peptides.
To further verify the presence of the modified peptide with compound I-13, the peptide at MH+ of 1358.65 was subjected to PSD (MS/MS) analysis. A correlational analysis with the homo sapien database identified the correct peptide modified by I-13.
For tryptic digests the instrument was set in Reflectron mode with a pulsed extraction setting of 2200. Calibration was done using the Laser Biolabs Pep Mix standard (1046.54, 1296.69, 1672.92, 2093.09, 2465.20). […]

| SMILES | BTK Inhibition Type (BTK in Ramos cells) | modification of intact BTK by mass shift (BTK) | inhibition at 1 µM (ErbB2) [%] | further results |
| --- | --- | --- | --- | --- |
| C=CC(=O)Nc1cccc(Nc2cc(Oc3ccc(Oc4ccccc4)cc3)ncn2)n1 [I-66] | irreversible | complete modification of BTK |  |  |
| C=CC(=O)Nc1cccc(Nc2cc(Oc3cccc(C)c3)ncn2)n1 [I-65] | reversible |  |  |  |
| C=CC(=O)Nc1cccc(Nc2cc(Nc3ccc(Oc4ccccc4)cc3)ncn2)n1 [I-63] | irreversible | complete modification of BTK |  |  |
| CN(C)C/C=C/C(=O)Nc1cccc(Nc2cc(Nc3ccc(Oc4ccccc4)cc3)ncn2)n1 [I-64, (E)-4-(dimethylamino)-N-(6-(6-(4-phenoxyphenylamino)pyrimidin-4-ylamino)pyridine-2-yl)but-2-enamide] | irreversible |  |  |  |
| C=CC(=O)Nc1cccc(Nc2cc(Nc3cccc(Br)c3)ncn2)c1 [I-1, N-{3-[6-(3-bromophenylamino)-pyrimidin-4-ylamino]-phenyl}-2-propenamide] |  |  | 76 | inhibition at 0.01 µM (ErbB1; @ 10 nM): 99%; inhibition at 0.1 µM (ErbB2; @ 100 nM): 61%; modification of ErbB4 by intact mass (ErbB4 kinase domain): covalent modification of ErbB4 |
| C=CC(=O)Nc1cccc(Nc2cc(Nc3ccc(Oc4ccccc4)cc3)ncn2)c1 [I-13, N-{3-[6-(4-phenoxyphenylamino)-pyrimidin-4-ylamino]phenyl}-2 propenamide] | irreversible |  | 98 | inhibition at 1 µM (ErbB1; @ 1 μM): 92%; inhibition of BTK after washout over time (BTK in Ramos cells; Ramos cells, 100 nM, 0, 4, 6 and 8 hour time points): maintains inhibition of BTK for 8 hours; modification of TEC peptide GCLLNFLR in tryptic digest (TEC kinase): reaction was complete |

Source: patent US9296704B2, “Substituted pyrimidines as protein kinase inhibitors” (CELGENE AVILOMICS RESEARCH, INC., priority 2007, dated 2016)
